In patent US6326139A (priority 1997, dated 2001):
“Also recorded” adds a separate entry of the source. Where two headings read alike, the source gives them in different places.

Experiments:
recombinant normal BuChE = biological target: T1, recombinant normal BuChE (Homo sapiens, UniProt P06276); test: Inactivation by carbamate inhibitors, normal BuChE; format: biochemical; details: for inactivation rate compared with AChE: common BuChE; for second order rate constant ki for inactivation: recombinant normal BuChE, inhibitor concentration in parentheses in table
T1 construct: made in house; host or cells: Xenopus oocytes injected with in vitro transcribed mRNA
T1 sequence (P06276 29-602): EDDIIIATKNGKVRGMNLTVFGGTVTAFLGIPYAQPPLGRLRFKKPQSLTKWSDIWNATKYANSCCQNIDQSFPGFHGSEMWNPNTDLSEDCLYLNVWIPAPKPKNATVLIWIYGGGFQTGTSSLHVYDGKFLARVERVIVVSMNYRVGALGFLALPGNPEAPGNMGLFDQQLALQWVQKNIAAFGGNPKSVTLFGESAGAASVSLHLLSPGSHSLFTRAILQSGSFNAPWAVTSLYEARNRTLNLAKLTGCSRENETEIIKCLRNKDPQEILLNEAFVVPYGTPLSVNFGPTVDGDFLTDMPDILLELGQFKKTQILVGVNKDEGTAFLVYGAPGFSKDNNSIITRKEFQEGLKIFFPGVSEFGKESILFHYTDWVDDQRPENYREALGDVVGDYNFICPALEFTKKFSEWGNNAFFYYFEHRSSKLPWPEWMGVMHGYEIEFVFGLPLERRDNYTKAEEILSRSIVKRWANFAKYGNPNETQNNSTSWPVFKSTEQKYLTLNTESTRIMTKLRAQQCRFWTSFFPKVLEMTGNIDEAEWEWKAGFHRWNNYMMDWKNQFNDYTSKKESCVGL
Text: (§1) reagent concentration (in parentheses), to calculate second order rate

[1] = test system: serum "atypical" BuChE (G/G); test: Inactivation of immobilized serum BuChE, "atypical"; format: biochemical, human; details: for rate of irreversible inactivation versus normal: "atypical" serum BuChE
recombinant human AChE = test: Spontaneous reactivation after complete inhibition, AChE; format: biochemical
[2] = test system: recombinant human BuChE, normal and "atypical"; test: Spontaneous reactivation after complete inhibition, BuChE; format: biochemical
"atypical" BuChE [3] = biological target: T2, "atypical" BuChE (Homo sapiens, UniProt P06276, D98G)
Target sequence in this assay (P06276 29-602 D98G): as the sequence (P06276 29-602) above, with D70G counted along it
Description: Recombinant normal and "atypical" BuChE were produced in Xenopus oocytes microinjected with in vitro transcribed BuChEmRNAs prepared from the corresponding cDNA types (Neville et al, 1990a).
Free binding sites were blocked with PBS-T buffer (144 mM NaCl, 20 mM Na phosphate pH 7.4, 0.05% Tween 20 and 0.01% Tymerosal) for 60 minutes at 37° C. […] Plates were washed three times with PBS-T prior to use.
Inactivation and reactivation measurements: Antibody-immobilized enzymes were exposed to the tested anti-ChEs in PBS-T buffer for varying times (0.5 to 80 minutes) following an initial determination of catalytic activities. At the noted time points, plates were washed three times with PBS-T and remaining substrate hydrolysis rates were determined (Loewenstein et al., 1993a). Spontaneous reactivation was measured for immobilized recombinant ChEs following complete inhibition, three washes with PBS-T, and subsequent incubation for the noted time and activity determination.

AChE (E6) = AChE (E6) (Homo sapiens, UniProt P22303); test: Inactivation by carbamate inhibitors, AChE E6; format: biochemical; parameters: made in house; host or cells: Xenopus oocytes injected with ACHE DNA; details: inhibitor concentration in parentheses in table
Chain of AChE (E6) (P22303 32-614): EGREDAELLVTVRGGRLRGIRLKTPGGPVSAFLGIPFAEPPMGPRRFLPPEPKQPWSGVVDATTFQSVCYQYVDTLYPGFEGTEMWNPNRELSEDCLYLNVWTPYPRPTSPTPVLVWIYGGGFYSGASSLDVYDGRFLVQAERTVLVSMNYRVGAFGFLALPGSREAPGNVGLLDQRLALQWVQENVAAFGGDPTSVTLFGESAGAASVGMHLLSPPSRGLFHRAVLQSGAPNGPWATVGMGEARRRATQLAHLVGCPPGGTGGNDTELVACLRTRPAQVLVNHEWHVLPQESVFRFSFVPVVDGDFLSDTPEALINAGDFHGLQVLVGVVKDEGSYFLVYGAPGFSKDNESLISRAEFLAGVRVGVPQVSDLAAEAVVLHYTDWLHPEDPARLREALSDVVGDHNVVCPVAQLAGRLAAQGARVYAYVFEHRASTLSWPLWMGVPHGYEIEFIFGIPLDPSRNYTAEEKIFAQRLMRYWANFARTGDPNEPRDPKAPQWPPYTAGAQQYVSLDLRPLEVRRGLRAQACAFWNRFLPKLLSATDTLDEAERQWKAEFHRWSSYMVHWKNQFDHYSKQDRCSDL
Text: as §1

AChE (E5) = AChE (E5) (Homo sapiens, UniProt P22303); test: Inactivation by carbamate inhibitors, AChE E5; format: biochemical; parameters: made in house; host or cells: Xenopus oocytes injected with ACHE DNA; details: inhibitor concentration in parentheses in table
Chain of AChE (E5) (P22303-4 with tags, fused parts or gaps limits assumed): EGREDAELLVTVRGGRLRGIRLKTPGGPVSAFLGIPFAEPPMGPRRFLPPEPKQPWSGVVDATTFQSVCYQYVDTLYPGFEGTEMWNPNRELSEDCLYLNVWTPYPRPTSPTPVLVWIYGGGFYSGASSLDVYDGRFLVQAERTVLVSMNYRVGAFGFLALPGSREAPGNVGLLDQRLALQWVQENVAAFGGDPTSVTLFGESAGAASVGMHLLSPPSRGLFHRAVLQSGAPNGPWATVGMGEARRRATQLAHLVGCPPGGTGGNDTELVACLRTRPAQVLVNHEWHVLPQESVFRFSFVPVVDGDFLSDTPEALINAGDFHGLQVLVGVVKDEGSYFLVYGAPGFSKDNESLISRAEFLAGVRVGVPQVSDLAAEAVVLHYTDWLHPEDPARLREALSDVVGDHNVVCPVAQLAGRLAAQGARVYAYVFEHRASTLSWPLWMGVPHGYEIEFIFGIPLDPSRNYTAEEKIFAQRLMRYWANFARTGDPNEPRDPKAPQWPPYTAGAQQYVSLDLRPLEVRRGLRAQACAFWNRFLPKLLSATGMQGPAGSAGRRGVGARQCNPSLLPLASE
Text: as §1

[4] = test system: BuChE in early placenta sections; test: Cytochemical ChE staining, early placenta; parameters: species or system human; details: 10^-5 M
[5] = test system: AChE in term placenta sections; test: Cytochemical ChE staining, term placenta; parameters: species or system human; details: 10^-5 M
serum normal BuChE (D/D) = test: Inactivation of immobilized serum BuChE, normal; format: biochemical, human; details: 30 minutes; normal enzyme
[6] = test system: heterozygous serum BuChE (D/G); test: Inactivation of immobilized serum BuChE, heterozygote; format: biochemical, human; details: 30 minutes
[7] = test system: recombinant human ChEs (all of the examined enzymes); test: Spontaneous reactivation after complete inhibition, all enzymes; format: biochemical
"atypical" BuChE [8] = biological target: T2, "atypical" BuChE; details: cited from earlier work
Target sequence in this assay (P06276 29-602 D98G limits assumed): as the sequence (P06276 29-602) above, with D70G counted along it

Rec. BuChE D/D (normal) = biological target: T3, Rec. BuChE D/D (normal) (Homo sapiens, UniProt P06276); test: Inhibition by cocaine / α-solanine, recombinant D/D; format: biochemical
T3 construct: made in house; host or cells: Xenopus oocytes (microinjected in vitro transcribed mRNA)
T3 sequence (P06276 29-602): as the sequence (P06276 29-602) above

[9] = biological target: T4, Rec. BuChE G/G ("atypical") (Homo sapiens, UniProt P06276, D98G); test: Inhibition by cocaine / α-solanine, recombinant G/G; format: biochemical
T4 construct: made in house; host or cells: Xenopus oocytes (microinjected in vitro transcribed mRNA)
T4 sequence (P06276 29-602 D98G): as the sequence (P06276 29-602) above, with D70G counted along it

Serum BuChE D/D (normal) = biological target: T5, Serum BuChE D/D (normal) (Homo sapiens, UniProt P06276); test: Inhibition by cocaine / α-solanine, serum D/D; format: biochemical
T5 construct: with enzyme from normal serum; from tissue; host or cells: human serum, normal homozygote
T5 sequence (P06276 29-602): as the sequence (P06276 29-602) above

[10] = biological target: T6, Serum BuChE G/G ("atypical") (Homo sapiens, UniProt P06276, D98G); test: Inhibition by cocaine / α-solanine, serum G/G; format: biochemical
T6 construct: applicants prepared serum from an individual who had experienced succinylcholine-induced apnea; from tissue; host or cells: human serum, homozygous carrier of the atypical allele
T6 sequence (P06276 29-602 D98G): as the sequence (P06276 29-602) above, with D70G counted along it

Rec. AChE = biological target: T7, Rec. AChE (Homo sapiens, UniProt P22303); test: Inhibition by cocaine, recombinant AChE; format: biochemical
T7 construct: made in house; host or cells: Xenopus oocytes (injected ACHE DNA, CMV promoter)
T7 sequence (P22303 32-614): as the sequence (P22303 32-614) above

[11] = biological target: T8, normal BuChE (serum and recombinant) (Homo sapiens, UniProt P06276); test: Inhibition by cocaine / α-solanine, normal enzymes; format: biochemical
T8 construct: made in house; host or cells: Xenopus oocytes (recombinant) and normal human serum (native), reported together
T8 sequence (P06276 29-602): as the sequence (P06276 29-602) above

"atypical" BuChE [12] = biological target: T2, "atypical" BuChE; details: cited from earlier work; remark: listed apart in the source
Target sequence in this assay (P06276 29-602 D98G limits assumed): as the sequence (P06276 29-602) above, with D70G counted along it

[13] = test system: myasthenia gravis patients; details: in vivo; cited from earlier work
ChE = details: cited from earlier work
AD patients = details: in vivo; cited from earlier work
[14] = test system: H.K., homozygous for the "atypical" allele; details: in vivo
[15] = test system: "atypical" BuChE in H.K.'s serum; test: Serum BuChE hydrolysis, H.K.'s serum; format: biochemical, human
[16] = test system: BuChE in sera from heterozygotes
[17] = test system: patients suffering from mild to moderate AD; details: cited from earlier work
THA treated patients = details: in vivo, cited from earlier work
PD-patient = details: in vivo; cited from earlier work
[18] = test system: Rec. BuChE D/G (1:1 mixture); format: biochemical, human; details: read-out: IC50 α-solanine
[19] = test system: Serum BuChE D/G (heterozygote); format: biochemical, human; details: read-out: IC50 α-solanine
[20] = biological target: serum and recombinant "atypical" BuChE (Homo sapiens, UniProt P06276, D98G); test: Inhibition by cocaine / α-solanine, "atypical" enzymes; format: biochemical; details: for activity of "atypical" enzyme at high α-solanine: concentrations higher than 5 μM, FIG. 3
Chain of serum and recombinant "atypical" BuChE (P06276 29-602 D98G limits assumed): as the sequence (P06276 29-602) above, with D70G counted along it

SMILES: CCCCCCCNC(=O)Oc1ccc2c(c1)C1(C)CCN(C)C1N2C (single isomer, unassigned) [N-heptyl physostigmine]
- inactivation rate compared with AChE (recombinant normal BuChE): higher than or equal to ACHE
- second order rate constant ki for inactivation (recombinant normal BuChE): 183000 ± 50000 M⁻¹ s⁻¹
- rate of irreversible inactivation versus normal [1]: much slower than its normal counterpart
- spontaneous reactivation, % of original activity (recombinant human AChE; both AChE forms, N-heptyl physostigmine): 5%
- spontaneous reactivation, % of original activity ([2]; by 20 minutes, normal and "atypical" BuChE): 10%
- inactivation rate of "atypical" BuChE, compared ("atypical" BuChE [3]): considerably lower rates
- second order rate constant ki for inactivation (AChE (E6)): 26700 M⁻¹ s⁻¹
- second order rate constant ki for inactivation (AChE (E5)): 23300 ± 6700 M⁻¹ s⁻¹

SMILES: C=CC[N+](C)(C)c1ccc(CCC(=O)CCc2ccc([N+](C)(C)CC=C)cc2)cc1 [BW284C51, 1,5-bis-(4-allyldimethylammoniumphenyl)-pentane-3-one dibromide]
- staining of early placenta sections [4]: not early placenta
- staining of term placenta [5]: largely suppressed staining in term

SMILES: CCN(C)C(=O)Oc1cccc([C@H](C)N(C)C)c1 [SDZ ENA-713]
- inactivation rate compared with AChE (recombinant normal BuChE): higher than or equal to ACHE
- second order rate constant ki for inactivation (recombinant normal BuChE): 233 ± 50 M⁻¹ s⁻¹
- loss of activity (serum normal BuChE (D/D)): 95%
- loss of activity [6]: 80%
- decrease in activity ([1]; 30 minutes, "atypical" BuChE): about 40%
- rate of irreversible inactivation versus normal [1]: much slower than its normal counterpart
- spontaneous reactivation, % of original activity [7]: ≤ 8%
- inactivation rate of "atypical" BuChE, compared ("atypical" BuChE [3]): considerably lower rates
- second order rate constant ki for inactivation (AChE (E6)): 71.7 M⁻¹ s⁻¹
- second order rate constant ki for inactivation (AChE (E5)): 55 ± 10 M⁻¹ s⁻¹

SMILES: CN(C)C(=O)Oc1cc(OC(=O)N(C)C)cc(C(O)CNC(C)(C)C)c1 (centres unmarked) [bambuterol]
- higher IC50 value, "atypical" versus wild-type ("atypical" BuChE [8]): at least 10 fold
- higher Ki value, "atypical" versus wild-type ("atypical" BuChE [8]): at least 10 fold

SMILES: COC(=O)[C@H]1[C@@H](OC(=O)c2ccccc2)C[C@@H]2CC[C@H]1N2C [cocaine]
- IC50 (Rec. BuChE D/D (normal)): 280 ± 20 µM
- IC50 [9]: 4050 ± 50 µM
- IC50 (Serum BuChE D/D (normal)): 320 ± 80 µM
- IC50 [10]: 5200 ± 300 µM
- IC50 (Rec. AChE): 3450 ± 2150 µM
- IC50 [11]: 300 µM

SMILES: CCCCOc1cc(C(=O)NCCN(CC)CC)c2ccccc2n1 [dibucaine]
- hydrolysis by the affected ("atypical") enzyme ("atypical" BuChE [12]): inability

SMILES: CC[N+](C)(C)c1cccc(O)c1 [edrophonium]
- relief of symptoms [13]: immediate, but brief, relief of the characteristic symptoms

SMILES: CC(C)NP(=O)(NC(C)C)OP(=O)(NC(C)C)NC(C)C [iso-OMPA, tetraisopropylpyrophosphoramide]
- staining of early placenta sections [4]: remained totally unlabeled
- staining of term placenta [5]: no reduction in labeling intensity
- sensitivity of atypical variant to inhibitors ("atypical" BuChE [8]): much less sensitive

SMILES: CN(C)C(=O)Oc1cccc([N+](C)(C)C)c1 [neostigmine]
- potency / affinity (ChE): potency equal to or greater than physostigmine

SMILES: CNC(=O)Oc1ccc2c(c1)[C@]1(C)CCN(C)[C@@H]1N2C [physostigmine]
- inactivation rate compared with AChE (recombinant normal BuChE): higher than or equal to ACHE
- second order rate constant ki for inactivation (recombinant normal BuChE): 6330 ± 2670 M⁻¹ s⁻¹
- rate of irreversible inactivation versus normal [1]: much slower than its normal counterpart
- spontaneous reactivation, % of original activity (recombinant human AChE; 45 minutes, AChE): up to 90%
- inactivation rate of "atypical" BuChE, compared ("atypical" BuChE [3]): considerably lower rates
- higher IC50 value, "atypical" versus wild-type ("atypical" BuChE [8]): at least 10 fold
- higher Ki value, "atypical" versus wild-type ("atypical" BuChE [8]): at least 10 fold
- sensitivity of atypical variant to inhibitors ("atypical" BuChE [8]): much less sensitive
- effect on cognitive functions (AD patients): small, short-term positive effect on cognitive functions

SMILES: CN(C)C(=O)Oc1ccc[n+](C)c1 [pyridostigmine]
- second order rate constant ki for inactivation (recombinant normal BuChE): 31.7 ± 3.3 M⁻¹ s⁻¹
- rate of irreversible inactivation versus normal [1]: much slower than its normal counterpart
- spontaneous reactivation, % of original activity (recombinant human AChE; AChE, pyridostigmine, FIG. 4): 50%
- spontaneous reactivation, % of original activity ([2]; BuChE, pyridostigmine, FIG. 4): 10%
- adverse symptoms [14]: insomnia, weight loss and general fatigue, which worsened consistently, and a deep depression
- time of gradual improvement following discontinuation [14]: 10 weeks
- second order rate constant ki for inactivation (AChE (E6)): 367 ± 150 M⁻¹ s⁻¹
- second order rate constant ki for inactivation (AChE (E5)): 417 M⁻¹ s⁻¹

SMILES: C[N+](C)(C)CCOC(=O)CCC(=O)OCC[N+](C)(C)C [succinylcholine]
- hydrolysis of succinylcholine by H.K.'s serum BuChE [15]: totally incapable of hydrolyzing succinylcholine; also recorded: cannot hydrolyze succinylcholine
- hydrolysis by the affected ("atypical") enzyme ("atypical" BuChE [12]): unable to hydrolyze succinylcholine
- hydrolysis by the affected ("atypical") enzyme ("atypical" BuChE [12]; listed as succinyl choline): unable to hydrolyze succinyl choline; also recorded: inability

SMILES: Nc1c2c(nc3ccccc13)CCCC2 [tacrine, 1,2,3,4-tetrahydro-9 aminoacridine]
- effect of 1 μm of the drug [16]: intermediate levels of activity
- improvement in AD ([17]; 30 weeks): statistically significant, dose-related improvements
- serum level of the aminotransferase ([17]; in 2% of the cases): 20 times the upper limit of normal value
- cases reaching 20 times the upper limit of normal aminotransferase ([17]; in vivo): 2%
- serum level of the aminotransferase, usual ([17]; in vivo): less than three times the upper limit of normal value
- patients with cholinergic side-effects / deficits (THA treated patients): up to 15%
- patients with cholinergic side-effects / deficits (THA treated patients; listed as THA): over 10%
- PD symptoms (PD-patient): worsening of the symptoms

SMILES: C[C@H]1CC[C@@H]2[C@@H](C)[C@H]3[C@H](C[C@H]4[C@@H]5CC=C6C[C@@H](O[C@@H]7O[C@H](CO)[C@H](O)[C@H](O[C@@H]8O[C@H](CO)[C@@H](O)[C@H](O)[C@H]8O)[C@H]7O[C@@H]7O[C@@H](C)[C@H](O)[C@@H](O)[C@H]7O)CC[C@]6(C)[C@H]5CC[C@]34C)N2C1 [α-solanine]
- IC50 (Rec. BuChE D/D (normal); Rec. BuChE D/D, read-out: IC50 α-solanine): 1.95 ± 1.04 µM
- IC50 [18]: 3.54 ± 2.41 µM
- IC50 ([9]; Rec. BuChE G/G, read-out: IC50 α-solanine): 171 µM
- IC50 (Serum BuChE D/D (normal); Serum BuChE D/D, read-out: IC50 α-solanine): 2.88 ± 0.33 µM
- IC50 [19]: 3.61 ± 0.81 µM
- IC50 ([10]; Serum BuChE G/G, read-out: IC50 α-solanine): 165 µM
- IC50 ([20]; "atypical"): 170 µM
- IC50 difference for α-solanine ([20]; "atypical" vs normal): > 100 fold
- activity of "atypical" enzyme at high α-solanine [20]: retains higher activity than the normal and the heterozygote enzymes
- activity of "atypical" enzyme at high α-solanine ([20]; listed as α-solanidine): shows higher activities than the normal, D70 enzyme
- inhibition of "atypical" enzyme by α-solanine ([20]; up to 10 μM): relatively inert
- IC50 ([11]; normal, read-out: IC50 for α-solanine): 2.5 µM
